The values that follow come from patent publication US9783527B2, “Indazole ureas and method of use” (AbbVie Inc., priority 2014, dated 2017).

In test [1] the target is human Nav1.7 (Homo sapiens (Human), UniProt Q15858). The experiment in a line: FRET-based membrane potential assay, recombinant human sodium channel Nav1.7. The format is cell-based. As to conditions: HEK293 cells stably expressing recombinant human Nav1.7; depolarization with veratridine (EC80) + scorpion venom. The essentials:
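IC50 derived by four-parameter Hill fit of percent inhibition of depolarization, measured as peak F440-480/F565-625 ratio over baseline. Stable human Nav1.7 HEK293 cells, dye-loaded with CC2-DMPE and DiSBAC2(3)/VABSC-1 at room temperature, received compound 3 min ahead of veratridine (EC80) plus scorpion venom.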

Test [2] addresses human Nav1.8 (Homo sapiens (Human), UniProt Q9Y5Y9). Briefly: FRET-based membrane potential assay, recombinant human sodium channel Nav1.8. It counts as cell-based. As to conditions: HEK293 cells stably expressing recombinant human Nav1.8; depolarization with veratridine (EC80) + scorpion venom. The essentials:
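HEK293 cells stably expressing Nav1.8 were loaded with CC2-DMPE/DiSBAC2(3) FRET voltage dyes. Compounds were added 3 min before depolarization with EC80 veratridine plus scorpion venom. The F440-480/F565-625 ratio was read on FLIPR; IC50 came from four-parameter Hill fits.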

human Nav1.8, sequence (Q9Y5Y9 whole entry): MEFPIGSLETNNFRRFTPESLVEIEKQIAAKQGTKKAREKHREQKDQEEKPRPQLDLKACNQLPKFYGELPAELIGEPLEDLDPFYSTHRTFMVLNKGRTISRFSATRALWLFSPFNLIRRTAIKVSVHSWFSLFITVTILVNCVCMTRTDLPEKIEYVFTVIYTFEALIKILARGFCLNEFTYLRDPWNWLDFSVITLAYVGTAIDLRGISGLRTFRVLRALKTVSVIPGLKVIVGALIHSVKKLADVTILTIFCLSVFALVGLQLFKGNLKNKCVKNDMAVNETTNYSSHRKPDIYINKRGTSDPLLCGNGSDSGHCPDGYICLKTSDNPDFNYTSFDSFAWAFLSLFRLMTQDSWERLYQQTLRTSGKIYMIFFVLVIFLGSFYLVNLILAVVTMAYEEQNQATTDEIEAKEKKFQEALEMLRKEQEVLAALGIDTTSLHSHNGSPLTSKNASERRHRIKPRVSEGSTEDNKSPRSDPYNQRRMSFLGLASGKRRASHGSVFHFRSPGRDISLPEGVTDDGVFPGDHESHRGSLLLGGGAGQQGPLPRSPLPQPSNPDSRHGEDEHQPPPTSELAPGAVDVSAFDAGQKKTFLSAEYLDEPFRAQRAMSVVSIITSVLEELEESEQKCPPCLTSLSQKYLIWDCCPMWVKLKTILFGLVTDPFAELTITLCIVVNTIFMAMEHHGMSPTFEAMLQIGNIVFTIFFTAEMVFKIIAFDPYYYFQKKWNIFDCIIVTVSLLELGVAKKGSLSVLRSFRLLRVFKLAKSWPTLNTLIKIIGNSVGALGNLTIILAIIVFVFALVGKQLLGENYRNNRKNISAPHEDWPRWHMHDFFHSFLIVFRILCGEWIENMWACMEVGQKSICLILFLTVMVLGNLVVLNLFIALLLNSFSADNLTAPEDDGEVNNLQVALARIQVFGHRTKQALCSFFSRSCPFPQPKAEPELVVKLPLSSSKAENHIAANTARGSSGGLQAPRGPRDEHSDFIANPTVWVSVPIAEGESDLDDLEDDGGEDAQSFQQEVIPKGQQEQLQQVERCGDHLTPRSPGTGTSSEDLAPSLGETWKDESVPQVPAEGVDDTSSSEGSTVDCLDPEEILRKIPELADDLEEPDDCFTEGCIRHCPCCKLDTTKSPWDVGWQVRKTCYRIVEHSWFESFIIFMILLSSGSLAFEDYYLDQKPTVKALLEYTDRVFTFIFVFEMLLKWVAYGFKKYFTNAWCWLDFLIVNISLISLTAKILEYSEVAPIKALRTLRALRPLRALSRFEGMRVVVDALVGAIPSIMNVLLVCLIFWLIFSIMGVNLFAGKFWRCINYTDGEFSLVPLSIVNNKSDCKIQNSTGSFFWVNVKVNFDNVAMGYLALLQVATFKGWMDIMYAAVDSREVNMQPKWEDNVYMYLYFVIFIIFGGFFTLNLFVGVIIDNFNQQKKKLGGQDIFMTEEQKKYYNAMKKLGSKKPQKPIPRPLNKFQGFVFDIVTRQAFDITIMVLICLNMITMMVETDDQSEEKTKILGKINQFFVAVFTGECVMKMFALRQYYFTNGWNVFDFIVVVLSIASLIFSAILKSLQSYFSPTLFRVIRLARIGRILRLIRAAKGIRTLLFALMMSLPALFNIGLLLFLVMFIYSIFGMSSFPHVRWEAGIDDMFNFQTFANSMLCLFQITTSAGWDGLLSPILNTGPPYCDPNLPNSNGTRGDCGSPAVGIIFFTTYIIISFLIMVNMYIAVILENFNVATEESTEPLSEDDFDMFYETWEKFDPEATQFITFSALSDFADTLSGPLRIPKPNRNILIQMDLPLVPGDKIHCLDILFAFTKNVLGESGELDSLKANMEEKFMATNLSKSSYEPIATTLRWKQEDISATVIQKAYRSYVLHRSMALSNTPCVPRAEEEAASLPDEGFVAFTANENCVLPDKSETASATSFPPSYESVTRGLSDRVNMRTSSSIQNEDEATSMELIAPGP
human Nav1.7, sequence (Q15858 whole entry): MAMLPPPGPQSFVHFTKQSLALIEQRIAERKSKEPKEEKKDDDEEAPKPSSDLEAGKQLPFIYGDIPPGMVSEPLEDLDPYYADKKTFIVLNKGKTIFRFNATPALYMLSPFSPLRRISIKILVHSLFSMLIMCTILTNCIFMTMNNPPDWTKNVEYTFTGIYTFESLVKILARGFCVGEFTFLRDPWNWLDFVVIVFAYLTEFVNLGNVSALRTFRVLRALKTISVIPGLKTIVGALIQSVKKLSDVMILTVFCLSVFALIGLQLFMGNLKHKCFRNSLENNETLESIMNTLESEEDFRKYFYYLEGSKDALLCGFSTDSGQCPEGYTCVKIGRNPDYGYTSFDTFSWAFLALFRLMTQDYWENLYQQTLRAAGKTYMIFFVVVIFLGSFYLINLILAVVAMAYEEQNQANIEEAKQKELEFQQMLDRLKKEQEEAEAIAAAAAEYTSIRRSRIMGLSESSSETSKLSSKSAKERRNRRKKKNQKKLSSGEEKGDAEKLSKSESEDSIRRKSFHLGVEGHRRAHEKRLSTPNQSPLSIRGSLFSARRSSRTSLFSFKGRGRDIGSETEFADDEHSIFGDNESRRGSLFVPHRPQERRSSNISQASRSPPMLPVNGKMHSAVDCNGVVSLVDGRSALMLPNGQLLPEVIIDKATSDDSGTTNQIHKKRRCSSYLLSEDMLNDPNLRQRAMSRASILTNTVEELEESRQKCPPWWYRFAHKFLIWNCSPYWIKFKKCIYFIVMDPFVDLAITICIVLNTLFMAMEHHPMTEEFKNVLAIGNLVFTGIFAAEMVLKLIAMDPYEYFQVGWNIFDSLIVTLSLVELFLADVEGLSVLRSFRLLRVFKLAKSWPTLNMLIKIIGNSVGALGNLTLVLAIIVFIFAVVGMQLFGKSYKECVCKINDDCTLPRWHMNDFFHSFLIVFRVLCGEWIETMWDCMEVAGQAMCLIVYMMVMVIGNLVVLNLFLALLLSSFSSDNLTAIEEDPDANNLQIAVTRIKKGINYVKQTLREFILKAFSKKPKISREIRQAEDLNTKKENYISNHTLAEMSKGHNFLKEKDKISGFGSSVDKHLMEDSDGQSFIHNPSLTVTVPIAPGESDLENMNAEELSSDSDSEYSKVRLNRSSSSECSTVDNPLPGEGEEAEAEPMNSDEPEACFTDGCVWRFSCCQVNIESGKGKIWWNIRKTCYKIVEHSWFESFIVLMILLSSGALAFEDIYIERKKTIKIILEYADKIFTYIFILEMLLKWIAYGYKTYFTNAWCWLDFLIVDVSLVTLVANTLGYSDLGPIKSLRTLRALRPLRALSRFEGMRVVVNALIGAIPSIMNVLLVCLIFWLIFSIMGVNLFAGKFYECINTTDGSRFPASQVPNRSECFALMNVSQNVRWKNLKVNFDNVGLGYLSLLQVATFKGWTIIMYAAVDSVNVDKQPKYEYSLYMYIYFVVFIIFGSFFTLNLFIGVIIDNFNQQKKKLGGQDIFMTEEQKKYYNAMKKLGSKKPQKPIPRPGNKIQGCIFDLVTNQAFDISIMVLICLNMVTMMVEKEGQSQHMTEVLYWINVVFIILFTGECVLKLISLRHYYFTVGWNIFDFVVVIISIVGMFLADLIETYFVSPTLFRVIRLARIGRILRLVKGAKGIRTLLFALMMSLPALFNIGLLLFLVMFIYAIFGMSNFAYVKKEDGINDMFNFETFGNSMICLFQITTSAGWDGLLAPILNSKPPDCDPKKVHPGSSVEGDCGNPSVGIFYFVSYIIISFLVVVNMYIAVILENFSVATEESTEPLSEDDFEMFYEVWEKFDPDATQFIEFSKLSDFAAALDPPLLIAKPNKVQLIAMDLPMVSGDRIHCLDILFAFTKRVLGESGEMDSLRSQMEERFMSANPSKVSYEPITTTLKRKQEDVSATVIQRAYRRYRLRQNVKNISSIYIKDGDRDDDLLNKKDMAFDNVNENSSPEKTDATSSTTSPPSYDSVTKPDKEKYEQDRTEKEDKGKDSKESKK

`CC(=O)C1CN(C(=O)CN2CCN(c3cccc4c3cnn4-c3ccccc3F)C2=O)C1` [Example 325, 1-[2-(3-acetylazetidin-1-yl)-2-oxoethyl]-3-[1-(2-fluorophenyl)-1H-indazol-4-yl]imidazolidin-2-one]: the IC50 in test [1] stood at 3.12 µM; in test [2] it was 3.86 µM.
Turning to `O=C(/C=C/N1CCN(c2cccc3c2cnn3-c2ccccc2F)C1=O)N1CC[C@H](F)C1` [Example 327, 1-[1-(2-fluorophenyl)-1H-indazol-4-yl]-3-{(1E)-3-[(3S)-3-fluoropyrrolidin-1-yl]-3-oxoprop-1-en-1-yl}imidazolidin-2-one], the IC50 worked out at 2.89 µM in test [1] and 0.678 µM in test [2].
The matching figures for `O=C(CN1CCN(c2cccc3c2cnn3-c2ccccc2F)C1=O)N1CC(C(F)(F)F)C1` [Example 329, 1-[1-(2-fluorophenyl)-1H-indazol-4-yl]-3-{2-oxo-2-[3-(trifluoromethyl)azetidin-1-yl]ethyl}imidazolidin-2-one]: 2.72 µM and 3.13 µM.
In the case of `CC(C)O[C@H]1CCCC[C@@H]1N1CCN(c2cccc3c2cnn3-c2ccccc2F)C1=O` [Example 331, 1-[1-(2-fluorophenyl)-1H-indazol-4-yl]-3-[(1S,2S)-2-isopropoxycyclohexyl]imidazolidin-2-one], the half-maximal inhibitory concentration (IC50) came out at 1.44 µM in test [1] and 3.65 µM in test [2].
`O=C(CN1CCN(c2cccc3c2cnn3-c2ccccc2F)C1=O)N[C@@H]1CCC[C@@H]1O` [Example 332, 2-{3-[1-(2-fluorophenyl)-1H-indazol-4-yl]-2-oxoimidazolidin-1-yl}-N-[(1R,2S)-2-hydroxycyclopentyl]acetamide]: the IC50 in test [1] was 5.1 µM; in test [2] it was 2.64 µM.
The matching figures for `O=C(CN1CCN(c2cccc3c2cnn3-c2ccccc2F)C1=O)N[C@H]1CCC[C@@H]1OCc1ccccc1` [Example 334, N-[(1S,2S)-2-(benzyloxy)cyclopentyl]-2-{3-[1-(2-fluorophenyl)-1H-indazol-4-yl]-2-oxoimidazolidin-1-yl}acetamide]: 1.93 µM and 0.657 µM.
For the compound `O=C(CN1CCN(c2cccc3c2cnn3-c2ccccc2F)C1=O)N[C@@H]1CCC[C@H]1OCc1ccccc1` [Example 335, N-[(1R,2R)-2-(benzyloxy)cyclopentyl]-2-{3-[1-(2-fluorophenyl)-1H-indazol-4-yl]-2-oxoimidazolidin-1-yl}acetamide], the IC50 is 1.11 µM in test [1] and 0.501 µM in test [2].
`CC(C)COC1COCC1N1CCN(c2cccc3c2cnn3-c2ccccc2F)C1=O` (stereo not shown) [Example 336, 1-[1-(2-fluorophenyl)-1H-indazol-4-yl]-3-(4-isobutoxytetrahydrofuran-3-yl)imidazolidin-2-one]: the IC50 stood at 2.14 µM in test [1] and 0.867 µM in test [2].
As for `CC(C)CO[C@H]1CCC[C@H]1NC(=O)CN1CCN(c2cccc3c2cnn3-c2ccccc2F)C1=O` [Example 337, 2-{3-[1-(2-fluorophenyl)-1H-indazol-4-yl]-2-oxoimidazolidin-1-yl}-N-[(1R,2S)-2-isobutoxycyclopentyl]acetamide], the IC50 in test [1] was found to be 2.24 µM; in test [2], 0.846 µM.
For `O=C(CN1CCN(c2cccc3c2cnn3-c2ccc(Cl)cc2)C1=O)N1CC[C@H](F)C1` [Example 338, 1-[1-(4-chlorophenyl)-1H-indazol-4-yl]-3-{2-[(3S)-3-fluoropyrrolidin-1-yl]-2-oxoethyl}imidazolidin-2-one] the same measures were 1.06 µM and 2.62 µM.
For `CC(C)(C)NC(=O)CN1CCN(c2cccc3c2cnn3-c2ccccc2F)C1=O` [Example 339, N-tert-butyl-2-{3-[1-(2-fluorophenyl)-1H-indazol-4-yl]-2-oxoimidazolidin-1-yl}acetamide], the IC50 in test [1] is 5.67 µM; in test [2], 2.67 µM.
For `O=C(CN1CCN(c2cccc3c2cnn3-c2ccccc2F)C1=O)NC1CCCC(F)(F)C1` (stereo not shown) [Example 340, N-(3,3-difluorocyclohexyl)-2-{3-[1-(2-fluorophenyl)-1H-indazol-4-yl]-2-oxoimidazolidin-1-yl}acetamide] the same measures were 2.64 µM and 0.637 µM.
Turning to `O=C(CN1CCN(c2cccc3c2cnn3-c2ccccc2F)C1=O)NC1CCC(F)(F)C1` (stereo not shown) [Example 341, N-(3,3-difluorocyclopentyl)-2-{3-[1-(2-fluorophenyl)-1H-indazol-4-yl]-2-oxoimidazolidin-1-yl}acetamide], the figures for the IC50 in test [1] and in test [2] were 2.9 µM and 0.991 µM, respectively.
For the compound `O=C(CN1CCN(c2cccc3c2cnn3-c2ccccc2F)C1=O)N1C[C@H]2CCC[C@H]2C1` [Example 342, 1-[1-(2-fluorophenyl)-1H-indazol-4-yl]-3-{2-[(3aR,6aS)-hexahydrocyclopenta[c]pyrrol-2(1H)-yl]-2-oxoethyl}imidazolidin-2-one], the IC50 in test [1] was found to be 2.21 µM; in test [2], 0.746 µM.
`O=C(CN1CCN(c2cccc3c2cnn3-c2ccccc2F)C1=O)NCCC(F)(F)F` [Example 343, 2-{3-[1-(2-fluorophenyl)-1H-indazol-4-yl]-2-oxoimidazolidin-1-yl}-N-(3,3,3-trifluoropropyl)acetamide]: the values for the IC50 in test [1] and in test [2] were 3.06 µM and 1.27 µM, respectively.
With `NC(=O)[C@@H](Cc1ccccc1)NC(=O)CN1CCN(c2cccc3c2cnn3-c2ccccc2F)C1=O` [Example 345, Nα-({3-[1-(2-fluorophenyl)-1H-indazol-4-yl]-2-oxoimidazolidin-1-yl}acetyl)-D-phenylalaninamide], the IC50 in test [1] is 6.06 µM; in test [2], 1.78 µM.
As to `CC(C)[C@H](NC(=O)CN1CCN(c2cccc3c2cnn3-c2ccccc2F)C1=O)C(=O)NC(C)(C)C` [Example 346, N-tert-butyl-N^2-({3-[1-(2-fluorophenyl)-1H-indazol-4-yl]-2-oxoimidazolidin-1-yl}acetyl)-L-valinamide], the IC50 was 2.04 µM in test [1] and 0.96 µM in test [2].
The matching figures for `O=C(CN1CCN(c2cccc3c2cnn3-c2ccccc2F)C1=O)NC1CCCC1(F)F` (stereo not shown) [Example 347, N-(2,2-difluorocyclopentyl)-2-{3-[1-(2-fluorophenyl)-1H-indazol-4-yl]-2-oxoimidazolidin-1-yl}acetamide]: 3.45 µM and 1.29 µM.
For `O=C(CN1CCN(c2cccc3c2cnn3-c2cc(Cl)cc(Cl)c2)C1=O)N1CC[C@H](F)C1` [Example 348, 1-[1-(3,5-dichlorophenyl)-1H-indazol-4-yl]-3-{2-[(3S)-3-fluoropyrrolidin-1-yl]-2-oxoethyl}imidazolidin-2-one] the same measures were 13.4 µM and 3.26 µM.
Take `O=C1CC(NC(=O)CN2CCN(c3cccc4c3cnn4-c3ccccc3F)C2=O)C1` [Example 349, 2-{3-[1-(2-fluorophenyl)-1H-indazol-4-yl]-2-oxoimidazolidin-1-yl}-N-(3-oxocyclobutyl)acetamide]: the IC50 came to 15.1 µM in test [1] and 7.57 µM in test [2].
Turning to `O=C(CN1CCN(c2cccc3c2cnn3-c2ccccc2F)C1=O)NC1CC(O)C1` (stereo not shown) [Example 350, 2-{3-[1-(2-fluorophenyl)-1H-indazol-4-yl]-2-oxoimidazolidin-1-yl}-N-(3-hydroxycyclobutyl)acetamide], the IC50 turned out to be 9.22 µM in test [1] and 12.3 µM in test [2].
For `CN(C(=O)CN1CCN(c2cccc3c2cnn3-c2ccccc2F)C1=O)C1CCC1` [Example 351, N-cyclobutyl-2-{3-[1-(2-fluorophenyl)-1H-indazol-4-yl]-2-oxoimidazolidin-1-yl}-N-methylacetamide] the same measures were 3.48 µM and 1.85 µM.
Regarding `CC1CN(C(=O)CN2CCN(c3cccc4c3cnn4-c3ccccc3F)C2=O)C1` [Example 352, 1-[1-(2-fluorophenyl)-1H-indazol-4-yl]-3-[2-(3-methylazetidin-1-yl)-2-oxoethyl]imidazolidin-2-one], the results for the IC50 in test [1] and in test [2] were 1.51 µM and 2.58 µM, respectively.
For `O=C(CN1CCN(c2cccc3c2cnn3-c2ccccc2F)C1=O)NC1(C(F)(F)F)CCC1` [Example 353, 2-{3-[1-(2-fluorophenyl)-1H-indazol-4-yl]-2-oxoimidazolidin-1-yl}-N-[1-(trifluoromethyl)cyclobutyl]acetamide] the same measures were 3.31 µM and 1.69 µM.
For `O=C(CN1CCN(c2cccc3c2cnn3-c2ccccc2F)C1=O)NC1CC(=NO)C1` (stereo not shown) [Example 354, 2-{3-[1-(2-fluorophenyl)-1H-indazol-4-yl]-2-oxoimidazolidin-1-yl}-N-[3-(hydroxyimino)cyclobutyl]acetamide] the same measures were 6.5 µM and 16.6 µM.
For `CON=C1CC(NC(=O)CN2CCN(c3cccc4c3cnn4-c3ccccc3F)C2=O)C1` (stereo not shown) [Example 355, 2-{3-[1-(2-fluorophenyl)-1H-indazol-4-yl]-2-oxoimidazolidin-1-yl}-N-[3-(methoxyimino)cyclobutyl]acetamide] the same measures were 9.23 µM and 4.05 µM.
